Assay results: patent US11008323B2, “Substituted tricyclic 1,4-benzodiazepinone derivatives as allosteric modulators of group II metabotropic glutamate receptors” (Domain Therapeutics, priority 2015, dated 2021)

Columns and labels:
[1] = molecular target: T1, human mGluR3 (hmGluR3) (Homo sapiens, UniProt Q14832); assay: Human mGluR3 positive allosteric modulator evaluation using Ca++ functional assay; format: cell-based; conditions: hmGluR3 transiently over-expressed in HEK-293 cells; stimulated by EC50 glutamate concentration; intracellular Ca2+ (Fluo4AM, FLIPR Tetra)
T1 construct: expressed in transfected cells; host or cells: HEK-293 cells, transient co-transfection by electroporation
T1 sequence (Q14832 23-879): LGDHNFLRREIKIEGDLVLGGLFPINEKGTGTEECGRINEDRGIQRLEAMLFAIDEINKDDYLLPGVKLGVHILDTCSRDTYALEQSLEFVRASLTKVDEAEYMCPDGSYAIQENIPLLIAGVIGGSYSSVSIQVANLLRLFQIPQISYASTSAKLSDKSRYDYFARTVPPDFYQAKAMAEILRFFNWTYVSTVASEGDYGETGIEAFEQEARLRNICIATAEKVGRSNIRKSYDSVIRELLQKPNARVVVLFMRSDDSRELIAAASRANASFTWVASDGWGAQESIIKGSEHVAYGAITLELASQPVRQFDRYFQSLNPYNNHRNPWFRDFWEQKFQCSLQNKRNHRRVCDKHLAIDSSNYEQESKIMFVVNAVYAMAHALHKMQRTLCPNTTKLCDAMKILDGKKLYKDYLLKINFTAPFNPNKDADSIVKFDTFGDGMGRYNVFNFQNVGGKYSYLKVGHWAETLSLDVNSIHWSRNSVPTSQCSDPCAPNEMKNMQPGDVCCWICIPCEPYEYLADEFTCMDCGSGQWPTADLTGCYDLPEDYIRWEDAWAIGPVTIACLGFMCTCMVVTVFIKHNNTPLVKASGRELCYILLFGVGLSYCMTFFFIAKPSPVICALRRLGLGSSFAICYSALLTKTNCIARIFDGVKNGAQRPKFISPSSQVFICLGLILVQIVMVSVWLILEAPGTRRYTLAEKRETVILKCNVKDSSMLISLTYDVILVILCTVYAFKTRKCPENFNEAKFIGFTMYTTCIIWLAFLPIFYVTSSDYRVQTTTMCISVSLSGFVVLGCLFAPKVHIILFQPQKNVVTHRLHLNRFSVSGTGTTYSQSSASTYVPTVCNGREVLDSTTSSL
Method in brief: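 Calcium flux (Fluo4, ex 485/em 525 nm) recorded first 10 min with compound alone, then 3 min after an EC50 glutamate challenge, giving agonist and PAM EC50 from 20-concentration sigmoidal fits. Receptor was transiently co-transfected in HEK-293 with chimeric G protein and glutamate transporters.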

| Compound | EC50 [1] [nM] | melting point [°C] |
| --- | --- | --- |
| CN1C(=O)c2cccn2-c2cc(-c3ccc(F)nc3)ccc2C12CC2 [Example 31, 5-Methyl-9-(6-fluoropyridin-3-yl)-spiro[benzo[f]pyrrolo[1,2-a][1,4]diazepine-6,1′-cyclopropan]-4(5H)-one] | < 100 | 171 to 176 |
| CN1C(=O)c2cccn2-c2cc(-c3cccnc3C(C)(C)O)ccc2C12CC2 [Example 72, 5-Methyl-9-(2-(1-hydroxy-1-methyl-ethyl)-pyridin-3-yl)-spiro[benzo[f]pyrrolo[1,2-a][1,4]diazepine-6,1′-cyclopropan]-4(5H)-one] | > 1000 | 220 to 228 |
| CN1C(=O)c2ccc(-c3ccnn3C)n2-c2cc(-c3ccc(F)cn3)ccc2C12CC2 [Example 86, 5-Methyl-1-(2-methyl-2H-pyrazol-3-yl)9-(5-fluoropyridin-2-yl)-spiro[benzo[f]pyrrolo[1,2-a][1,4]diazepine-6,1′-cyclopropan]-4(5H)-one] | > 1000 | 143 to 166 |
| CN1C(=O)c2cc(-c3ccccc3)cn2-c2cc(-c3cccc(C(=O)O)c3)ccc2C12CC2 [Example 94, 3-(5-methyl-4-oxo-2-phenyl-4,5-dihydrospiro[benzo[f]pyrrolo[1,2-a][1,4]diazepine-6,1′-cyclopropan]-9-yl)benzoic acid] | < 100 | > 250 |
| CC(=O)N1CC=C(c2ccc3c(c2)-n2cccc2C(=O)N(C)C32CC2)CC1 [Example 48, 5-Methyl-9-(1-acetyl-1,2,3,6-tetrahydro-pyridin-4-yl)-spiro[benzo[f]pyrrolo[1,2-a][1,4]diazepine-6,1′-cyclopropan]-4(5H)-one] | 100 to 1000 | 101 to 110 |
| CN1C(=O)c2cc(-c3ccccc3)nn2-c2cc(-c3cc[nH]n3)ccc2C12CC2 [Example 136, 9-(1H-pyrazol-3-yl)-5-methyl-2-phenyl-spiro[benzo[f]pyrazolo[1,5-a][1,4]diazepine-6,1′-cyclopropan]-4(5H)-one] | 100 to 1000 | 218 to 224 |
| CN1C(=O)c2cccn2-c2cc(-c3ccc(C(F)(F)F)cn3)ccc2C12CC2 [Example 69, 5-Methyl-9-(5-trifluoromethylpyridin-2-yl)-spiro[benzo[f]pyrrolo[1,2-a][1,4]diazepine-6,1′-cyclopropan]-4(5H)-one] | 100 to 1000 | 78 to 89 |
| CN1C(=O)c2cc(-c3nnco3)cn2-c2cc(-c3cccnn3)ccc2C12CC2 [Example 193] | 100 to 1000 | > 250 |
| CN1C(=O)c2cc(-c3ccccc3)cn2-c2cc(-c3ccc(F)nc3)ccc2C12CC2 [Example 106, 5-Methyl-2-phenyl-9-(6-fluoro-pyridin-3-yl)-spiro[benzo[f]pyrrolo[1,2-a][1,4]diazepine-6,1′-cyclopropan]-4(5H)-one] | < 100 | 177 to 184 |
| CN1C(=O)c2cccn2-c2cc(-c3cccnc3F)ccc2C12CC2 [Example 33, 5-Methyl-9-(2-fluoropyridin-3-yl)-spiro[benzo[f]pyrrolo[1,2-a][1,4]diazepine-6,1′-cyclopropan]-4(5H)-one] | 100 to 1000 | 158 to 162 |
| CN1C(=O)c2cc(-c3nnco3)cn2-c2cc(-c3cccc(C#N)c3)ccc2C12CC2 [Example 192] | < 100 | > 250 |
| CN1C(=O)c2cccn2-c2cc(CC#N)ccc2C12CC2 [Example 51, 5-Methyl-9-acetonitrile-spiro[benzo[f]pyrrolo[1,2-a][1,4]diazepine-6,1′-cyclopropan]-4(5H)-one] | > 1000 | 60 to 69 |
| CN1C(=O)c2cccn2-c2cc(-c3cccnc3C(F)(F)F)ccc2C12CC2 [Example 36, 5-Methyl-9-(2-trifluoromethylpyridin-3-yl)-spiro[benzo[f]pyrrolo[1,2-a][1,4]diazepine-6,1′-cyclopropan]-4(5H)-one] | 100 to 1000 | 160 to 165 |
| CN1C(=O)c2cc(-c3ccccc3)nn2-c2ccccc2C12CC2 [Example 138, 5-Methyl-2-phenyl-spiro[benzo[f]pyrazolo[1,5-a][1,4]diazepine-6,1′-cyclopropan]-4(5H)-one] | > 1000 | 212 to 218 |
| CN1C(=O)c2cccn2-c2cc(C=CC#N)ccc2C12CC2 (mixture of isomers) [Example 52, 5-Methyl-9-actylonitrile-spiro[benzo[f]pyrrolo[1,2-a][1,4]diazepine-6,1′-cyclopropan]-4(5H)-one] | 100 to 1000 | 130 to 138 |
| CN1C(=O)c2cccn2-c2cc(-c3ccc(C(F)(F)F)nc3)ccc2C12CC2 [Example 60, 5-Methyl-9-(6-trifluoromethylpyridin-3-yl)-spiro[benzo[f]pyrrolo[1,2-a][1,4]diazepine-6,1′-cyclopropan]-4(5H)-one] | 100 to 1000 | 88 to 97 |
| CN1C(=O)c2cc(-c3ccccc3)nn2-c2cc(-c3ccc(N)cc3)ccc2C12CC2 [Example 124, 9-(4-Amino-phenyl)-5-methyl-2-phenyl-spiro[benzo[f]pyrazolo[1,5-a][1,4]diazepine-6,1′-cyclopropan]-4(5H)-one] | > 1000 | 195 to 209 |
| CN1C(=O)c2cc(-c3ccccc3)nn2-c2cc(-c3cccc(C(=O)O)c3)ccc2C12CC2 [Example 133, 3-(5-methyl-4-oxo-2-phenyl-4,5-dihydrospiro[benzo[f]pyrazolo[1,5-a][1,4]diazepine-6,1′-cyclopropan]-9-yl)benzoic acid] | < 100 | 211 to 217 |
| COc1ccc(-c2ccc3c(c2)-n2nc(-c4ccccc4)cc2C(=O)N(C)C32CC2)cc1 [Example 128, 9-(4-Methoxy-phenyl)-5-methyl-2-phenyl-spiro[benzo[f]pyrazolo[1,5-a][1,4]diazepine-6,1′-cyclopropan]-4(5H)-one] | 100 to 1000 | > 250 |
| CN1C(=O)c2cc(-c3nnco3)cn2-c2cc(-c3ccc(F)nc3)ccc2C12CC2 [Example 187] | < 100 | 160 to 175 |

Other lines, results leading:

| EC50 [1] [nM] | melting point [°C] | Compound |
| --- | --- | --- |
| < 100 | 138 to 142 | [2H]C([2H])([2H])N1C(=O)c2cccn2-c2cc(-c3ccc(F)cn3)ccc2C12CC2 [Example 64, 5-(Methyl-d3)-9-(5-fluoropyridin-2-yl)-spiro[benzo[f]pyrrolo[1,2-a][1,4]diazepine-6,1′-cyclopropan]-4(5H)-one] |
| > 1000 | > 250 | CN1C(=O)c2cccn2-c2cc(-c3c[nH]nc3C(F)(F)F)ccc2C12CC2 [Example 28, 5-Methyl-9-(3-trifluoromethyl-1H-pyrazol-4-yl)-spiro[benzo[f]pyrrolo[1,2-a][1,4]diazepine-6,1′-cyclopropan]-4(5H)-one] |
| < 100 | 220 to 225 | CN1C(=O)c2cccn2-c2cc(-c3ccc(F)nc3)cc(F)c2C12CC2 [Example 74, 7-Fluoro-5-methyl-9-(6-fluoro-pyridin-3-yl)-spiro[benzo[f]pyrrolo[1,2-a][1,4]diazepine-6,1′-cyclopropan]-4(5H)-one] |
| 100 to 1000 | 185 to 192 | CN1C(=O)c2cccn2-c2cc(-c3ccc(F)nc3)c(F)cc2C12CC2 [Example 78, 8-Fluoro-5-methyl-9-(6-fluoro-pyridin-3-yl)-spiro[benzo[f]pyrrolo[1,2-a][1,4]diazepine-6,1′-cyclopropan]-4(5H)-one] |
| > 1000 | 138 to 142 | COCN1C(=O)c2cccn2-c2cc(-c3cccnc3C)ccc2C12CC2 [Example 21, 5-Methoxymethyl-9-(2-methyl-pyridin-3-yl)-spiro[benzo[f]pyrrolo[1,2-a][1,4]diazepine-6,1′-cyclopropan]-4(5H)-one] |
| > 1000 | 226 to 230 | CN1C(=O)c2cc(-c3ccccc3)nn2-c2cc(N3CCCC3)ccc2C12CC2 [Example 139, 5-Methyl-2-phenyl-9-(pyrrolidin-1-yl)-spiro[benzo[f]pyrazolo[1,5-a][1,4]diazepine-6,1′-cyclopropan]-4(5H)-one] |
| < 100 | > 250 | [2H]C([2H])([2H])N1C(=O)c2cc(-c3nnco3)cn2-c2cc(-c3ccc(F)nc3)ccc2C12CC2 [Example 188] |
| > 1000 | 59 to 64 | CN1C(=O)c2cccn2-c2cc(CCC#N)ccc2C12CC2 [Example 53, 5-Methyl-9-propionitrile-spiro[benzo[f]pyrrolo[1,2-a][1,4]diazepine-6,1′-cyclopropan]-4(5H)-one] |
| 100 to 1000 | 197 to 201 | CN1C(=O)c2cccn2-c2cc(-c3ccnc(F)c3)ccc2C12CC2 [Example 34, 5-Methyl-9-(2-fluoropyridin-4-yl)-spiro[benzo[f]pyrrolo[1,2-a][1,4]diazepine-6,1′-cyclopropan]-4(5H)-one] |
| > 1000 | 183 to 197 | CN1C(=O)c2cccn2-c2cc(-c3cc[nH]c(=O)c3)ccc2C12CC2 [Example 68, 5-Methyl-9-(2-hydroxypyridin-4-yl)-spiro[benzo[f]pyrrolo[1,2-a][1,4]diazepine-6,1′-cyclopropan]-4(5H)-one] |
| < 100 | 140 to 151 | CN1C(=O)c2cc(-c3ccccc3)cn2-c2cc(-c3ccc(F)cn3)ccc2C12CC2 [Example 110, 5-Methyl-2-phenyl-9-(5-fluoro-pyridin-2-yl)-spiro[benzo[f]pyrrolo[1,2-a][1,4]diazepine-6,1′-cyclopropan]-4(5H)-one] |
| < 100 | 189 to 194 | CN1C(=O)c2cccn2-c2cc(-c3cccc(C#N)c3)ccc2C12CC2 [Example 44, 5-Methyl-9-(3-cyanophenyl)-spiro[benzo[f]pyrrolo[1,2-a][1,4]diazepine-6,1′-cyclopropan]-4(5H)-one] |
